Measurements published in ChEMBL document CHEMBL1145304 (Bioorg Med Chem Lett, 2006).

Experiments:
[1] = target: Sodium-dependent noradrenaline transporter (Homo sapiens, UniProt P23975)
Description: Inhibition of [3H]NA reuptake at NA transporter in HEK293 cells

[2] = target: Sodium-dependent serotonin transporter (Homo sapiens, UniProt P31645); type: cell-based, HEK293
[3] = target: Sodium-dependent dopamine transporter (Homo sapiens, UniProt Q01959)
Sodium-dependent dopamine transporter, sequence (Q01959 whole entry): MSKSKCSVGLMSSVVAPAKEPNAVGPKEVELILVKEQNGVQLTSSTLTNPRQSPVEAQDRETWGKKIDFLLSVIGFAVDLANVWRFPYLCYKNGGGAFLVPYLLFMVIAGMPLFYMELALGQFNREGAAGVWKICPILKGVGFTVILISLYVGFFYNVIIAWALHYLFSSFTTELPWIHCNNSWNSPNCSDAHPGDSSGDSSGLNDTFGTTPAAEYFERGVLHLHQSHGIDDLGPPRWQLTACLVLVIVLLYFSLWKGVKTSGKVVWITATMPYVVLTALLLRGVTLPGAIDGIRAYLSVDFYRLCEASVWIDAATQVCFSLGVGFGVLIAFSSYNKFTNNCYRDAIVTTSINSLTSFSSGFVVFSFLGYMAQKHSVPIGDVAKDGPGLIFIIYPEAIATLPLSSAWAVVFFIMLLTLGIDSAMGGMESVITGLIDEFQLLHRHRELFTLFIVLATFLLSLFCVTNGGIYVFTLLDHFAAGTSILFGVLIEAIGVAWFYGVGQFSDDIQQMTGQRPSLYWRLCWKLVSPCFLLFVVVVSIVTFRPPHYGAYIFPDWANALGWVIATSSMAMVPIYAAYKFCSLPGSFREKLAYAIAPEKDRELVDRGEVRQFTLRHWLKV
Description: Inhibition of [3H]DA reuptake at DA transporter in HEK293 cells

Sodium-dependent noradrenaline transporter, sequence (P23975 whole entry): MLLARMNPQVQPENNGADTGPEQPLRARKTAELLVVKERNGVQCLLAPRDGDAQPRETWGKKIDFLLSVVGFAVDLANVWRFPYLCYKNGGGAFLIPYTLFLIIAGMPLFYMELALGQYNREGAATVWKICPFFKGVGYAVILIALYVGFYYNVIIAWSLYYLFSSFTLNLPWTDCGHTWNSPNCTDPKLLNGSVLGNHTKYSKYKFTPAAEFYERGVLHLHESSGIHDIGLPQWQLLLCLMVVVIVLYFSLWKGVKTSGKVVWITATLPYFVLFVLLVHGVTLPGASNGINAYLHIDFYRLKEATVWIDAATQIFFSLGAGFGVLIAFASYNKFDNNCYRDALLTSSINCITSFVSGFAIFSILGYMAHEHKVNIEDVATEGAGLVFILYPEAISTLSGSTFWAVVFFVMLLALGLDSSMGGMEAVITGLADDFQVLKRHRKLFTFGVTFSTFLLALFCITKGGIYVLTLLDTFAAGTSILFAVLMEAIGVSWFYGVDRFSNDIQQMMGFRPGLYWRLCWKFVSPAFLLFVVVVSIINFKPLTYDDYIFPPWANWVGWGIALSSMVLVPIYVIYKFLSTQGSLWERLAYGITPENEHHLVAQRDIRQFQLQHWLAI
Sodium-dependent serotonin transporter, sequence (P31645 whole entry): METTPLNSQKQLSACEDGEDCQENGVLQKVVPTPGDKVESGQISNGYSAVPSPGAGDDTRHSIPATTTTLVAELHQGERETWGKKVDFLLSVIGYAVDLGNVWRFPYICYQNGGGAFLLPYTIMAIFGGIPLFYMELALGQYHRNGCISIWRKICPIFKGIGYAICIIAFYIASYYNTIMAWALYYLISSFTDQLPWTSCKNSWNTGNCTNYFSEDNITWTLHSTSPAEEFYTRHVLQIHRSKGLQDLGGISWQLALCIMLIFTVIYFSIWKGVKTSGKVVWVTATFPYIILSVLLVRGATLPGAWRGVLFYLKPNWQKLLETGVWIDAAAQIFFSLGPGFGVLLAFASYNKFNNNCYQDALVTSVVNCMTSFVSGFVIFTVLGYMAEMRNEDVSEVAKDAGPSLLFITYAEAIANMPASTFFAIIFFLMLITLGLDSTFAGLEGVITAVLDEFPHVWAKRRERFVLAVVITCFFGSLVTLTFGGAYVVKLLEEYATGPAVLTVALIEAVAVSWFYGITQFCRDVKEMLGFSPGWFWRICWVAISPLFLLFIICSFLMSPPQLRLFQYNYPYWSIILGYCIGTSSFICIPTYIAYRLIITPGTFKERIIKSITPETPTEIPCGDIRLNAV

c1ccc(CCC(c2ccccc2)N2CCNCC2)cc1 (centres undefined)
IC50 [1]: > 400 nM | IC50 [2]: 23 nM

CCOc1ccccc1CC(c1nccs1)N1CCNCC1 (centres undefined)
IC50 [1]: 340 nM | IC50 [2]: 39 nM

Clc1ccccc1CC(c1ccccc1)N1CCCNCC1 (centres undefined)
IC50 [1]: 76 nM | IC50 [2]: 42 nM

c1ccc(C(Cc2cccc3ccccc23)N2CCNCC2)cc1 (centres undefined)
IC50 [1]: > 400 nM | IC50 [2]: 12 nM

CCOc1ccccc1CC(c1cccnc1)N1CCNCC1 (centres undefined)
IC50 [1]: 15 nM | IC50 [2]: 46 nM | IC50 [3]: > 4000 nM

CCOc1ccccc1CC(c1cncs1)N1CCNCC1 (centres undefined)
IC50 [1]: 21 nM | IC50 [2]: 40 nM

CCOc1ccccc1CC(c1ccccc1)N1CCCNCC1 (centres undefined)
IC50 [1]: 8.8 nM | IC50 [2]: 300 nM

c1ccc(C(Cc2ccncc2)N2CCNCC2)cc1 (centres undefined)
IC50 [1]: > 400 nM | IC50 [2]: 38 nM

c1ccc(C(Cc2ccccn2)N2CCNCC2)cc1 (centres undefined)
IC50 [1]: > 400 nM | IC50 [2]: 230 nM

Clc1ccccc1CC(c1cncs1)N1CCNCC1 (centres undefined)
IC50 [1]: 120 nM | IC50 [2]: 12 nM

Clc1ccccc1CC(c1cccnc1)N1CCNCC1 (centres undefined)
IC50 [1]: 75 nM | IC50 [2]: 14 nM | IC50 [3]: 9200 nM

c1ccc(CCC(Cc2ccccc2)N2CCNCC2)cc1 (centres undefined)
IC50 [1]: 48 nM | IC50 [2]: 23 nM | IC50 [3]: 400 nM

c1ccc(C(Cc2ccc3ccccc3c2)N2CCNCC2)cc1 (centres undefined)
IC50 [1]: > 400 nM | IC50 [2]: 17 nM
